Data set [1] relates to PRPS1 mutants S103T, 5103N, N144S, T303S, K176N, D183E, A190T, A190V, L191F. Kind of data set: Inhibition of GDP/ADP on PRPS1 protein activity in vitro (Kinase-Glo). The class given is biochemical, human. The following applies: relapse-specific PRPS1 mutants compared with PRPS1 wild-type. The method, then:
(§1) ATP (Item No. A7699), ADP (Item No. A2754), GDP (Item No. G7172) and ribose-5-phosphate (Item No. R7750) were purchased from Sigma. The reaction system comprised 50 mM Tris pH 7.5, 2 mM phosphate, 1 mM DTT, 10 mM MgCl2, 0.5 mM ribose-5-phosphate, 0.5 mM ATP and PRPS1 protein.
(§2) (ii) Inhibition of GDP/ADP on PRPS1 protein activity: 3 times gradient dilution of the GDP/ADP with an initial concentration of 5 mM And 15 μL of PRPS1 in vitro enzyme reaction system was prepared, added into 384-well plate, and reacted at 37° C. for 30 minutes. Then 10 μL of Kinase-Glo reagent (Item No. V3722) from Promega was added reacted at 37° C. for 15 minutes to terminate the reaction. The chemiluminescence values can be read in a microplate reader, and the inhibition of GDP/ADP on PRPS1 protein activity was calculated by Graphpad 5.0.

Data set [2] concerns PRPS1 loss-of-function mutants A87T and M115T. Described as above. The class given is biochemical, human. The following applies: known loss-of-function mutants A87T and M115T compared with wild-type. The method, then:
as §1, §2

The subject of data set [3] is Reh cells expressing the PRPS1 wild-type. Kind of data set: Cell-level feedback regulation of PRPS1 activity by GDP/ADP (13C5-PRPP by LC-MS). The class given is cell-based, human. The settings on record: wild-type experimental group; 2 mM ADP or 0.5 mM GDP, 4 hours. Here is the method:
(§3) In the present invention, the intracellular activity of PRPS1 was detected by means of isotope labeling in combination with the technologies of cell biology and metabolomics, and based on this, the effect of nucleotide GDP/ADP on PRPS1 activity was evaluated. The preferred embodiment is as follows:
(§4) (i) Cell culture: Reh cells expressing the PRPS1 wild-type and various PRPS1 mutants were counted and seeded into 6 cm culture dish, and 3×10^6 cells were inoculated in each well.
(§5) (ii) Cell treatment: 2 mM ADP or 0.5 mM GDP was added to the culture dish and cells were treated for 4 hours, after that, the cells were resuspended using glucose-free medium (Gibco, cat #11879-020), and 10 mM glucose labeled with ^13C6 was added into each 6 cm culture dish (Cambridge isotope laboratories, cat #CLM-1396-1) and labeled for 5 minutes. (iii) Cell collection: The cells were transferred to a centrifuge tube, centrifuged at 3,000 g for 5 minutes, the supernatant was removed, and the cells were lysed using 3×10^6 cells/200 μl 80% methanol. (iv) The level of ^13C5-PRPP was detected by LC-MS (ABI 5500 Qtrap coupled with Waters Acquity UPLC), and standard curve quantification was made using PRPP (sigma, cat #P8296). The activity of PRPS1 was determined according to the level of PRPP.

In data set [4] the test system is Reh cells expressing PRPS1 mutant genes. The description is as above. The class given is cell-based, human. The settings on record: each PRPS1 mutant gene in experimental group; 2 mM ADP or 0.5 mM GDP, 4 hours. The method, then: as §3, §4, §5
The target in data set [5] is HGPRT (Homo sapiens, UniProt P00492). The following applies: for TIMP generation (6-MP conversion by HGPRT): 100 μM 6-MP as reaction substrate, increased concentration of hypoxanthine; for affinity to HGPRT (Km): compared with that of 6-MP and HGPRT. The method, then:
Chemotherapeutic drug 6-MP is an analog of hypoxanthine, and both 6-MP and hypoxanthine are substrates of HGPRT. The present invention established an in vitro enzymatic reaction to determine the Km value of 6-MP and hypoxanthine reacting with HGPRT, respectively, which reflects the affinity of HGPRT to hypoxanthine and 6-MP. The preferred embodiment is as follows:
The specific reaction system is as follows:
Hypoxanthine and 6-MP were diluted in a concentration gradient, reacted at 37° C. for 1 hour, and 80% methanol was added to terminate the reaction. The contents of IMP and TIMP were detected by LC-MS. The reaction curves were plotted and the Km values of hypoxanthine and 6-MP were calculated by Graphpad 5.0 software.

The subject of data set [6] is Reh cells expressing different PRPS1 mutant genes. Description: Drug susceptibility test of 6-MP / 6-TG (cell survival, CellTiter-Glo). The class given is cell-based, human. The following applies: Reh cells expressing PRPS1 mutant genes compared with control group expressing empty load; 72 hours. Here is the method:
Reh cells are a strain of human acute B lymphoblastic leukemia. The susceptibility of the PRPS1 mutant to the chemotherapeutic drug 6-MP was determined by the survival rate of Reh cells expressing different PRPS1 mutant genes which were treated by chemotherapeutic drug 6-MP, wherein the process comprises steps of
(i) Cell inoculation: Reh cells expressing the PRPS1 wild-type and all kinds of PRPS1 mutants were counted and seeded into 96-well plates with inoculated 10^4 cells per well. Five parallel wells were designed.
Drugs were added into 96-well plates with grown cells and incubated at 37° C. for 72 hours.
The susceptibility of the PRPS1 mutant to the chemotherapeutic drug 6-TG was determined by the survival rate of Reh cells expressing different PRPS1 mutant genes which were treated by chemotherapeutic drug 6-TG, in which the process comprises steps of
(i) Cell inoculation: Reh cells expressing the PRPS1 wild-type and all kinds of PRPS1 mutants were counted and seeded into 96-well plates with inoculated 10^4 cells per well. Five parallel wells were set up.
Drug were added into 96-well plates with grown cells and incubated at 37° C. for 72 hours.

Data set [7] concerns Reh cells expressing PRPS1 mutant genes. Description: Identification of cells apoptosis (Annexin V / 7-AAD flow cytometry). The format is cell-based, human. The following applies: 10 μg/ml 6-MP or 6-TG, 72 hours; cells expressing PRPS1 mutant genes compared with control group expressing empty load. The method, then:
(i) Cell inoculation: Reh cells expressing the PRPS1 wild-type and various PRPS1 mutants were counted and seeded into 12-well plates with inoculated 3×10^5 cells per well. Duplicated wells were set up.
(ii) Cell treatment: the drug 6-MP or 6-TG with concentration of 10 μg/ml was added to a 12-well plate with grown cells and incubated at 37° C. for 72 hours.
(iii) Cell staining: After 72 hours, the cells were collected by centrifugation, washed with PBS buffer, added in […] and 7-AAD dye labeled with PE from BD, and incubated for 15 minutes at room temperature. The cells were centrifuged to discard the supernatant and washed twice with PBS. (iv) Identification by Flow Cytometer: proportion of cell apoptosis was determined using Flow Cytometer from Canto II BD.

The test system of data set [8] is Reh-PRPS1-A190T cells. Kind of data set: Intracellular concentration of hypoxanthine in cells treated with Lometrexol (LC-MS). The format is cell-based, human. The following applies: Reh-PRPS1-A190T treated with Lometrexol vs control. Here is the method:
(§6) (iii) Cell collection: cells were pipetted out from the well and centrifuged at 1500 rpm to remove the supernatant. The cells were washed with PBS once, and centrifuged again (500 g). Removed the supernatant.
(§7) (iv) Cell lysis: the cells were lysed using 200 μl 80% methanol per 3×10^6 cells.
(§8) (v) The lysed cells were centrifuged by 14,000 g at 4° C. for 10 minutes, and then the supernatant was transferred to a 1.5 ml EP tube.
(§9) (vi) The contents of hypoxanthine, AICAR and Inosine were detected by LC-MS technology (ABI 5500 Qtrap coupled with Waters Acquity UPLC), and standard curves for absolute quantification were made using ^13C5, ^15N4-hypoxanthine (Cambridge isotope laboratories, cat #489522), AICAR (sigma, cat #A9978) and Inosine (Sigma, cat #I4125), respectively.
(§10) (vi) Determining the intracellular concentration of hypoxanthine: the same as Embodiment 14.

Data set [9] deals with Reh-PRPS1-S103T cells. The data set is described as above. The class given is cell-based, human. The settings on record: Reh-PRPS1-S103T treated with Lometrexol vs control. Here is the method: as §6, §7, §8, §9, §10
Data set [10] has as its system Reh-PRPS1-A190T cells. Description: Concentration of 6-MP metabolites in cells treated with Lometrexol (LC-MS). The class given is cell-based, human. The following applies: Reh-PRPS1-A190T treated with Lometrexol vs control. The text has this: (§11) (v) Determining the concentration of 6-MP metabolites: the same as Embodiment 13.
Data set [11] relates to Reh-PRPS1-S103T cells. The description is as above. The class given is cell-based, human. The following applies: Reh-PRPS1-S103T treated with Lometrexol vs control.
Source text: as §11

The subject of data set [12] is Reh cells expressing PRPS1 mutants. Kind of data set: Identification of intracellular metabolites of 6-MP by LC-MS. The class given is cell-based, human. The settings on record: 10 μM 6-MP, 4 hours; mutants in experimental groups compared with control group. The method, then:
6-MP is a prodrug and needs to be undergone metabolic reactions in vivo to form TIMP and TGMP before it works, as shown in FIG. 9C. The identification procedure is as follows:
(i) Cell inoculation: Reh cells expressing the PRPS1 wild-type and various PRPS1 mutants were counted and seeded into 6 cm culture dish with inoculated 3×10^6 cells in each plate.
(ii) Cell treatment: 10 μM chemotherapy drug 6-MP was added into each 6 cm culture dish and treated for 4 hours;
(iii) Cell collection: The cells were transferred to a centrifuge tube, centrifuged at 3,000 g for 5 minutes to remove the supernatant, and lysed at 3×10^6 cells per 200 μl 80% methanol;
(iv) The amounts of metabolites from chemotherapeutic drugs 6-MP, TIMP, TGMP, r-MP, r-TG and r-MMP were measured by LC-MS (ABI 5500 Qtrap coupled with Waters Acquity UPLC), and standard curve for quantification was made using TIMP (Jean Bioscience, […], r-TG (Sigma, cat #858412), r-MMP (Sigma, cat #M4002) respectively.

Data on six compounds can be found in patent US11021753B2, “Mutant genes related to drug resistance and relapse of acute lymphoblastic leukaemia and a use thereof” (SHANGHAI CHILDREN'S MEDICAL CENTER, SHANGHAI JIAO TONG …, priority 2015, dated 2021).

Like-named read-outs stand apart in the source and are kept apart here.

HGPRT, sequence (P00492 whole entry): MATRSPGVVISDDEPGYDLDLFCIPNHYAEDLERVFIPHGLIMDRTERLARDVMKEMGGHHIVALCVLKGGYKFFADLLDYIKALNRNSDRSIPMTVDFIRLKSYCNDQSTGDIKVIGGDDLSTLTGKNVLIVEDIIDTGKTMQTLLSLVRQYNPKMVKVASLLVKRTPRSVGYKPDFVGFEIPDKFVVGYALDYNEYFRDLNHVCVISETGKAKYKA

As to `Nc1nc2c(ncn2[C@@H]2O[C@H](COP(=O)(O)OP(=O)(O)O)[C@@H](O)[C@H]2O)c(=O)[nH]1` [GDP], the “inhibition of GDP/ADP on PRPS1 protein activity” value is on record as “significantly lower” in data set [1] and “no significant difference” in data set [2]. Besides, the “concentration of PRPP after adding the nucleotide” value in data set [3] is recorded as “decreased”. In addition, the “concentration of PRPP product after adding the nucleotide” value in [4] was “not affected”.

For `Nc1ncnc2c1ncn2[C@@H]1O[C@H](COP(=O)(O)OP(=O)(O)O)[C@@H](O)[C@H]1O` [ADP], the “inhibition of GDP/ADP on PRPS1 protein activity” value in data set [1] is listed as “significantly lower”; in [2], “no significant difference”. In addition, the “concentration of PRPP after adding the nucleotide” value in [3] is recorded as “decreased”. In addition, in data set [4], the “concentration of PRPP product after adding the nucleotide” value is “not affected”.

For `O=c1[nH]cnc2nc[nH]c12` [hypoxanthine], in data set [5], the “TIMP generation (6-MP conversion by HGPRT)” value was “significantly inhibited” and the “affinity to HGPRT (Km)” value is “significantly higher”. Also, in [5] (listed as HX), the “TIMP generation (6-MP conversion by HGPRT)” value is recorded as “can suppress” and the “affinity to HGPRT (Km)” value was “preferred to 6-MP”.

Regarding `Nc1nc2nc[nH]c2c(=S)[nH]1` [6-TG, 6-thioguanine], the “IC50 values of drug” value in data set [6] is “significantly increased”. For the same compound, the “apoptotic ratio of cells” value in data set [7] is reported as “significantly down-regulated”.

Lometrexol: the concentration of hypoxanthine entry in data set [8] and in data set [9] was “significantly decreased” throughout. Moreover, the “intracellular levels of 6-MP metabolites TIMP and TGMP” value in [10] and in data set [11] was “significantly increased” throughout.

Turning to `Sc1ncnc2nc[nH]c12` [6-MP, 6-mercaptopurine], the “IC50 values of drug” value in [6] is “significantly increased”. Also, the “contents of 6-MP metabolites TIMP, TGMP and r-MP, r-TG and r-MMP in cells” value in data set [12] is “significantly lower”. For the same compound, the “apoptotic ratio of cells” value in data set [7] is given as “significantly down-regulated”.
